Holding throughout (format): functional
In assay [1] the test system is Candida albicans. Nature of the assay: Antifungal activity against Candida albicans SC5314 after 24 hrs by micro-broth dilution method. The following applies: SC5314, 24 h. For orientation: Dilution methods test growth across graded concentrations, often in twofold steps.
For assay [2], the system named is Candida albicans. The assay can be described thus: Antifungal activity against Candida albicans Y0109 after 24 hrs by micro-broth dilution method. The following applies: Y0109, 24 h.
The next assay deals with Candida tropicalis. The assay can be described thus: Antifungal activity against Candida tropicalis by micro-broth dilution method.
Another assay has as its system Candida parapsilosis. Nature of the assay: Antifungal activity against Candida parapsilosis by micro-broth dilution method. The following applies: Lodderomyces parapsilosis.
The test system of a further assay is Kluyveromyces marxianus. The assay can be described thus: Antifungal activity against Candida kefyr by micro-broth dilution method.
For the next assay, the system named is Cryptococcus neoformans. The assay can be described thus: Antifungal activity against Cryptococcus neoformans BLS108 after 72 hrs by micro-broth dilution method. Particulars: BLS108, 72 h.
A further assay has as its system Trichophyton rubrum. The assay can be described thus: Antifungal activity against Trichophyton rubrum by micro-broth dilution method.
The next assay has as its system Aspergillus fumigatus. The assay can be described thus: Antifungal activity against Aspergillus fumigatus by broth microdilution method.

Values after ≈ are worked out from the molar mass of the structure shown.

Usually MIC80 stands for the lowest concentration that inhibits either 80% of growth or 80% of the strains tested, depending on the study. High values mean weaker potency, low ones greater potency.

`CCCCC(=O)Nc1ccc(-n2cnn(CC(O)(Cn3cncn3)c3ccc(F)cc3F)c2=O)cc1` (racemic): the MIC80 was 0.00097 µg/mL (≈ 0.00195 µM) in the assay with Candida albicans [1]; 0.00024 µg/mL (≈ 0.000482 µM) in the assay with Candida albicans [2]; 0.0625 µg/mL (≈ 0.126 µM) with Candida tropicalis; 0.00024 µg/mL (≈ 0.000482 µM) with Candida parapsilosis; 64 µg/mL (≈ 129 µM) against Kluyveromyces marxianus; 0.0625 µg/mL (≈ 0.126 µM) in the assay with Cryptococcus neoformans. Also, the MIC80 in the assay with Trichophyton rubrum and with Aspergillus fumigatus was over 64 µg/mL each time.
For the compound `CCCCCC(=O)Nc1ccc(-n2cnn(CC(O)(Cn3cncn3)c3ccc(F)cc3F)c2=O)cc1` (racemic), the MIC80 worked out at 0.00097 µg/mL (≈ 0.0019 µM) against Candida albicans [1]; 0.00024 µg/mL (≈ 0.000469 µM) against Candida albicans [2]; 0.00097 µg/mL (≈ 0.0019 µM) in the assay with Candida tropicalis; 0.00024 µg/mL (≈ 0.000469 µM) in the assay with Candida parapsilosis; 4 µg/mL (≈ 7.82 µM) in the assay with Kluyveromyces marxianus; 0.0625 µg/mL (≈ 0.122 µM) with Cryptococcus neoformans. Further, the MIC80 in the assay on Trichophyton rubrum was 64 µg/mL (≈ 125 µM); against Aspergillus fumigatus it was over 64 µg/mL.
As for `CCCCCCC(=O)Nc1ccc(-n2cnn(CC(O)(Cn3cncn3)c3ccc(F)cc3F)c2=O)cc1` (racemic), the MIC80 is 0.0039 µg/mL (≈ 0.00742 µM) with Candida albicans [1]; 0.0625 µg/mL (≈ 0.119 µM) in the assay on Candida albicans [2]; 64 µg/mL (≈ 122 µM) against Candida tropicalis; 1 µg/mL (≈ 1.9 µM) with Candida parapsilosis; 1 µg/mL (≈ 1.9 µM) against Kluyveromyces marxianus; 0.0625 µg/mL (≈ 0.119 µM) against Cryptococcus neoformans. In addition, the MIC80 against Trichophyton rubrum is 64 µg/mL (≈ 122 µM); in the assay on Aspergillus fumigatus, over 64 µg/mL.
On to `CCCCCCCC(=O)Nc1ccc(-n2cnn(CC(O)(Cn3cncn3)c3ccc(F)cc3F)c2=O)cc1` (racemic), for which the MIC80 against Candida albicans [1] was 4 µg/mL (≈ 7.41 µM); against Candida albicans [2], 16 µg/mL (≈ 29.7 µM); against Candida tropicalis, 64 µg/mL (≈ 119 µM); against Candida parapsilosis, 64 µg/mL (≈ 119 µM); in the assay with Kluyveromyces marxianus, over 64 µg/mL; with Cryptococcus neoformans, over 64 µg/mL. For the same compound, the MIC80 in the assay with Trichophyton rubrum and with Aspergillus fumigatus was over 64 µg/mL throughout.
In the case of `N#CCC(=O)Nc1ccc(-n2cnn(CC(O)(Cn3cncn3)c3ccc(F)cc3F)c2=O)cc1` (racemic), the MIC80 is 0.25 µg/mL (≈ 0.52 µM) with Candida albicans [1]; 1 µg/mL (≈ 2.08 µM) against Candida albicans [2]; 1 µg/mL (≈ 2.08 µM) against Candida tropicalis; 1 µg/mL (≈ 2.08 µM) in the assay with Candida parapsilosis; over 64 µg/mL with Kluyveromyces marxianus; over 64 µg/mL against Cryptococcus neoformans. Further, the MIC80 is 16 µg/mL (≈ 33.3 µM) with Trichophyton rubrum and over 64 µg/mL against Aspergillus fumigatus.
`O=C(Nc1ccc(-n2cnn(CC(O)(Cn3cncn3)c3ccc(F)cc3F)c2=O)cc1)C1CC1` (racemic): the MIC80 with Candida albicans [1] was 0.0625 µg/mL (≈ 0.13 µM); against Candida albicans [2], 0.0625 µg/mL (≈ 0.13 µM); with Candida tropicalis, 1 µg/mL (≈ 2.08 µM); against Candida parapsilosis, 0.25 µg/mL (≈ 0.519 µM); against Kluyveromyces marxianus, over 64 µg/mL; with Cryptococcus neoformans, over 64 µg/mL. Besides, the MIC80 in the assay with Trichophyton rubrum and with Aspergillus fumigatus was over 64 µg/mL in each case.
`O=C(Nc1ccc(-n2cnn(CC(O)(Cn3cncn3)c3ccc(F)cc3F)c2=O)cc1)C1CCCCC1` (racemic): the MIC80 in the assay with Candida albicans [1], in the assay with Candida albicans [2], in the assay with Candida tropicalis, against Candida parapsilosis, with Kluyveromyces marxianus and in the assay on Cryptococcus neoformans was over 64 µg/mL in each case. Also, the MIC80 was 16 µg/mL (≈ 30.6 µM) in the assay with Trichophyton rubrum and over 64 µg/mL against Aspergillus fumigatus.
As for `O=C(Nc1ccc(-n2cnn(CC(O)(Cn3cncn3)c3ccc(F)cc3F)c2=O)cc1)c1cccnc1` (racemic), the MIC80 is 1 µg/mL (≈ 1.93 µM) against Candida albicans [1]; 1 µg/mL (≈ 1.93 µM) in the assay on Candida albicans [2]; 4 µg/mL (≈ 7.71 µM) against Candida tropicalis; 1 µg/mL (≈ 1.93 µM) in the assay with Candida parapsilosis; 16 µg/mL (≈ 30.9 µM) in the assay on Kluyveromyces marxianus; 64 µg/mL (≈ 123 µM) in the assay with Cryptococcus neoformans. Further, the MIC80 in the assay on Trichophyton rubrum was 64 µg/mL (≈ 123 µM); in the assay on Aspergillus fumigatus, over 64 µg/mL.
Take `O=C(Nc1ccc(-n2cnn(CC(O)(Cn3cncn3)c3ccc(F)cc3F)c2=O)cc1)c1ccccn1` (racemic): the MIC80 in the assay with Candida albicans [1] is 1 µg/mL (≈ 1.93 µM); in the assay on Candida albicans [2], 4 µg/mL (≈ 7.71 µM); in the assay with Candida tropicalis it was over 64 µg/mL; in the assay with Candida parapsilosis, 4 µg/mL (≈ 7.71 µM); against Kluyveromyces marxianus, 16 µg/mL (≈ 30.9 µM); with Cryptococcus neoformans, over 64 µg/mL. Besides, the MIC80 in the assay on Trichophyton rubrum and in the assay with Aspergillus fumigatus was over 64 µg/mL in each case.
As for `O=C(Nc1ccc(-n2cnn(CC(O)(Cn3cncn3)c3ccc(F)cc3F)c2=O)cc1)c1ccco1` (racemic), the MIC80 against Candida albicans [1] was 0.25 µg/mL (≈ 0.493 µM); in the assay on Candida albicans [2] it was 0.25 µg/mL (≈ 0.493 µM); against Candida tropicalis, 1 µg/mL (≈ 1.97 µM); against Candida parapsilosis, 0.0625 µg/mL (≈ 0.123 µM); in the assay with Kluyveromyces marxianus, 4 µg/mL (≈ 7.88 µM); in the assay with Cryptococcus neoformans, 16 µg/mL (≈ 31.5 µM). Further, the MIC80 in the assay with Trichophyton rubrum and with Aspergillus fumigatus was over 64 µg/mL in each case.
As for `O=C(Nc1ccc(-n2cnn(CC(O)(Cn3cncn3)c3ccc(F)cc3F)c2=O)cc1)c1cccs1` (racemic), the MIC80 is 0.25 µg/mL (≈ 0.478 µM) with Candida albicans [1]; 1 µg/mL (≈ 1.91 µM) against Candida albicans [2]; 16 µg/mL (≈ 30.6 µM) with Candida tropicalis; 4 µg/mL (≈ 7.64 µM) in the assay with Candida parapsilosis; over 64 µg/mL against Kluyveromyces marxianus; over 64 µg/mL in the assay with Cryptococcus neoformans. The MIC80 in the assay with Trichophyton rubrum and in the assay on Aspergillus fumigatus was over 64 µg/mL each time.
With `C[C@@H]1[C@H](O)[C@@H](C)/C=C/C=C/C=C/C=C/C=C/C=C/C=C/[C@H](O[C@@H]2O[C@H](C)[C@@H](O)[C@H](N)[C@@H]2O)C[C@@H]2O[C@](O)(C[C@@H](O)C[C@@H](O)[C@H](O)CC[C@@H](O)C[C@@H](O)CC(=O)O[C@H]1C)C[C@H](O)[C@H]2C(=O)O` [AMPHOTERICIN B], the MIC80 in the assay with Candida albicans [1] came to 0.25 µg/mL (≈ 0.271 µM); against Candida albicans [2], 0.25 µg/mL (≈ 0.271 µM); against Candida tropicalis, 1 µg/mL (≈ 1.08 µM); against Candida parapsilosis it was 0.25 µg/mL (≈ 0.271 µM); in the assay on Kluyveromyces marxianus it was 0.25 µg/mL (≈ 0.271 µM); against Cryptococcus neoformans, 1 µg/mL (≈ 1.08 µM). The MIC80 in the assay on Trichophyton rubrum was 4 µg/mL (≈ 4.33 µM); with Aspergillus fumigatus, 1 µg/mL (≈ 1.08 µM).
Take `OC(Cn1cncn1)(Cn1cncn1)c1ccc(F)cc1F` [FLUCONAZOLE]: the MIC80 in the assay with Candida albicans [1] is 0.25 µg/mL (≈ 0.816 µM); against Candida albicans [2], 0.25 µg/mL (≈ 0.816 µM); in the assay on Candida tropicalis, 1 µg/mL (≈ 3.27 µM); in the assay on Candida parapsilosis, 0.25 µg/mL (≈ 0.816 µM); against Kluyveromyces marxianus it was 4 µg/mL (≈ 13.1 µM); in the assay with Cryptococcus neoformans, 1 µg/mL (≈ 3.27 µM). For the same compound, the MIC80 is 1 µg/mL (≈ 3.27 µM) against Trichophyton rubrum and over 64 µg/mL against Aspergillus fumigatus.
Turning to `CCC(C)n1ncn(-c2ccc(N3CCN(c4ccc(OCC5COC(Cn6cncn6)(c6ccc(Cl)cc6Cl)O5)cc4)CC3)cc2)c1=O` (stereo not given) [ITRACONAZOLE], the MIC80 against Candida albicans [1], in the assay on Candida albicans [2], with Candida tropicalis, against Candida parapsilosis, against Kluyveromyces marxianus and against Cryptococcus neoformans was 0.0625 µg/mL (≈ 0.0886 µM) throughout. Moreover, the MIC80 with Trichophyton rubrum and with Aspergillus fumigatus was 0.0625 µg/mL (≈ 0.0886 µM) each time.
`C[C@@H](c1ncncc1F)[C@](O)(Cn1cncn1)c1ccc(F)cc1F` [VORICONAZOLE]: the MIC80 in the assay on Candida albicans [1], in the assay on Candida albicans [2], in the assay with Candida tropicalis, against Candida parapsilosis, in the assay with Kluyveromyces marxianus and in the assay with Cryptococcus neoformans was 0.0039 µg/mL (≈ 0.0112 µM) each time. Besides, the MIC80 with Trichophyton rubrum came out at 0.0156 µg/mL (≈ 0.0447 µM); in the assay with Aspergillus fumigatus, 0.0039 µg/mL (≈ 0.0112 µM).
